Ends that are not written are not given here. * marks the point of attachment. FITC = O=C1OC2(c3ccc(O)cc3Oc3cc(O)ccc32)c2ccc(NC(=S)*)cc21
B1: FITC-conjugated CD44 peptide (SRRRCGQKKKLVINSGNGAVEDYK-FITC) (peptide)
peptide: SRRRCGQKKKLVINSGNGAVEDYK(FITC)

Assays:
MSN–CD44 interaction = MSN–CD44 interaction (Homo sapiens, UniProt P26038); experiment: MSN–CD44 TR-FRET assay; type: binding; details: for increase in potency relative to compound 2: MSN–CD44 TR-FRET
[1] = target: GST-MSN and Venus-Flag-CD44 (Homo sapiens, UniProt P26038); experiment: GST pull-down assay in cell lysates; type: binding; details: full-length GST-MSN and Flag-CD44
Chain of GST-MSN and Venus-Flag-CD44 (P26038 whole entry): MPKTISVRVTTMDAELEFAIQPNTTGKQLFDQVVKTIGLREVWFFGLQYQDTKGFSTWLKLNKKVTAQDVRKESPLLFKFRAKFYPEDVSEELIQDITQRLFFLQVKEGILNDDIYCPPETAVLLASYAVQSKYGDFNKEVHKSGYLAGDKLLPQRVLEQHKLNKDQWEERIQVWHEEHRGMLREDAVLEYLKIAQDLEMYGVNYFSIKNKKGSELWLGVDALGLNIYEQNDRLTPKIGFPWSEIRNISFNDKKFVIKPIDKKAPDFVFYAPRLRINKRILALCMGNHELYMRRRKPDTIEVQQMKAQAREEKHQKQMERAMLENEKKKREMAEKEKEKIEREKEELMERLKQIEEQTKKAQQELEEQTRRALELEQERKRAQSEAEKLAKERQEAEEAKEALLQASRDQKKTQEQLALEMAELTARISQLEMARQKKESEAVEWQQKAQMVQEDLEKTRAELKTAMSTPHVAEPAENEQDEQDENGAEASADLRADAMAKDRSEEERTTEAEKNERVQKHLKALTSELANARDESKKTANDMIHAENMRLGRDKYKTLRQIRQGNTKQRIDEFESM

[2] = Solubility by nephelometry; details: aqueous / PBS buffer
[3] = target: T1, 6His-tagged MSN FERM domain (residues 1-345), wild type (human, UniProt P26038 1-345); experiment: FRET or BRET
[4] = target: T1, 6His-tagged MSN FERM domain (residues …); experiment: FRET or BRET; remark: listed apart in the source
[5] = target: MSN FERM domain (residues 1-345), wild type, 6His tag cleaved (human, UniProt P26038 1-345); experiment: FRET or BRET
[6] = target: T1, 6His-tagged MSN FERM domain (residues …); experiment: FRET or BRET; remark: listed apart in the source
[7] = target: B1; experiment: FRET or BRET

Chain of MSN–CD44 interaction (P26038 1-345): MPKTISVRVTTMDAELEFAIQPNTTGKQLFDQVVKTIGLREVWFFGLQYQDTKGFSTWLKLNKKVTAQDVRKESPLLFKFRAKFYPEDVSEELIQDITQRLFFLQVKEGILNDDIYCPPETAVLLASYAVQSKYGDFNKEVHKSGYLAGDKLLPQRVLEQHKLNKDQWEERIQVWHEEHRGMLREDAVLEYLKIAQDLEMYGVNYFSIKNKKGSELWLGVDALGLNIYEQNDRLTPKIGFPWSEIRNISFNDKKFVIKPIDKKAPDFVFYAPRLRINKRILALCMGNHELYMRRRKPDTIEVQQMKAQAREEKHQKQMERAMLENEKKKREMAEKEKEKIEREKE

Molecule | h (hill slope) of MSN–CD44 TR-FRET dose response (MSN–CD44 interaction) | effect on MSN–CD44 interaction in GST pull-down assay [1] | solubility [2] | other results
Nc1ccc(C(=O)Nc2ccc(-c3nc4ccc(NC(=O)c5ccc(N)cc5)cc4s3)cc2)cc1.O=C(O)C(F)(F)F.O=C(O)C(F)(F)F [Compound 1, 4-amino-N-(4-(6-(4-aminobenzamido)benzo[d]thiazol-2-yl)phenyl)benzamide bis(2,2,2-trifluoroacetate)] | 1.7 | induce the dissociation of CD44 from MSN |  | 
COc1ccccc1C(=O)Nc1ccc(-c2nc3ccccc3[nH]2)cc1 [Compound 2, N-(4-(1H-benzo[d]imidazol-2-yl)phenyl)-2-methoxybenzamide] | 15.8 | induce the dissociation of CD44 from MSN | low solubility | 
COc1ccc(C(=O)Nc2ccc(-c3nc4ccccc4[nH]3)cc2)c(OC)c1 [Compound 2a, N-(4-(1H-benzo[d]imidazol-2-yl)phenyl)-2,4-dimethoxybenzamide] | 2.4 | able to inhibit the MSN–CD44 interaction | improved solubility | increase in potency relative to compound 2 (MSN–CD44 interaction): approximately 2 fold
O=C(Nc1ccc(-c2nc3ccccc3[nH]2)cc1)c1cccc(Cl)c1 [Compound 2b, N-(4-(1H-benzo[d]imidazol-2-yl)phenyl)-3-chlorobenzamide] | 2.3 | able to inhibit the MSN–CD44 interaction | improved solubility | increase in potency relative to compound 2 (MSN–CD44 interaction): approximately 2 fold
EDGGSSWEYIWTLPSG [C3S1-pd peptide] |  |  |  | IC50 [3]: ~220 nM; EC50 [4]: ~130 nM
B1 |  |  |  | binding result [5]: binds; binding result [6]: binds
MSN FERM domain (1-345) L281R, untagged (domain or fragment) MPKTISVRVTTMDAELEFAIQPNTTGKQLFDQVVKTIGLREVWFFGLQYQDTKGFSTWLKLNKKVTAQDVRKESPLLFKFRAKFYPEDVSEELIQDITQRLFFLQVKEGILNDDIYCPPETAVLLASYAVQSKYGDFNKEVHKSGYLAGDKLLPQRVLEQHKLNKDQWEERIQVWHEEHRGMLREDAVLEYLKIAQDLEMYGVNYFSIKNKKGSELWLGVDALGLNIYEQNDRLTPKIGFPWSEIRNISFNDKKFVIKPIDKKAPDFVFYAPRLRINKRIRALCMGNHELYMRRRKPDTIEVQQMKAQAREEKHQKQMERAMLENEKKKREMAEKEKEKIEREKE |  |  |  | fold higher concentration needed to inhibit, against WT MSN [7]: 10 fold
MSN FERM domain (1-345) H288A, untagged (domain or fragment) MPKTISVRVTTMDAELEFAIQPNTTGKQLFDQVVKTIGLREVWFFGLQYQDTKGFSTWLKLNKKVTAQDVRKESPLLFKFRAKFYPEDVSEELIQDITQRLFFLQVKEGILNDDIYCPPETAVLLASYAVQSKYGDFNKEVHKSGYLAGDKLLPQRVLEQHKLNKDQWEERIQVWHEEHRGMLREDAVLEYLKIAQDLEMYGVNYFSIKNKKGSELWLGVDALGLNIYEQNDRLTPKIGFPWSEIRNISFNDKKFVIKPIDKKAPDFVFYAPRLRINKRILALCMGNAELYMRRRKPDTIEVQQMKAQAREEKHQKQMERAMLENEKKKREMAEKEKEKIEREKE |  |  |  | fold higher concentration needed to inhibit, against WT MSN [7]: 10 fold

— paper PMC10692723 (The Journal of Biological Chemistry, 2023)
